Experimental data as given in patent US20240034649A1, “METHODS FOR ERADICATING BIOFILMS FROM PLUMBING SYSTEMS” (GORDON & ROSENBLATT, LLC, priority 2014, published 2024).

Experiments:
[1] = test system: Pseudomonas aeruginosa biofilms; test: Minimal Biofilm Eradication Concentration (MBEC) assay, Calgary biofilm device; format: cell-based; details: 22-25° C
Biofilm = details: shock dose 50-80 mg/mL over 8 hours, acidic conditions, outlets flushed approx. 1 hour; cited from earlier work
Legionella = details: cited from earlier work
[2] = at STP; cited from earlier work

Q: Which Log10 reduction ([1]; Bleach 3.15 ppm, pH 6.5, 30 min) does the source give for `OCl` [Bleach, sodium hypochlorite] here?
A: Its Log10 reduction is 0.16 CFU/mm^2.

Q: And the Log10 reduction ([1]; Bleach 3.15 ppm, pH 7.5, 30 min)?
A: Its Log10 reduction is 0.96 CFU/mm^2.

Q: What about the Log10 reduction ([1]; Bleach 6.31 ppm, pH 6.5, 30 min) of the same compound?
A: The Log10 reduction was “Total inhibition”.

Q: And the Log10 reduction ([1]; Bleach 6.31 ppm, pH 7.5, 30 min)?
A: Its Log10 reduction is 1.91 CFU/mm^2.

Q: And the Log10 reduction ([1]; Bleach 12.6 ppm, pH 6.5, 30 min)?
A: Its Log10 reduction is “Total inhibition”.

Q: What about the Log10 reduction ([1]; Bleach 12.6 ppm, pH 7.5, 30 min) of the same compound?
A: Its Log10 reduction is 3.03 CFU/mm^2.

Q: What about the Log10 reduction ([1]; Bleach 50.5 ppm, pH 6.5, 30 min) of the same compound?
A: Its Log10 reduction is “Total inhibition”.

Q: And the Log10 reduction ([1]; Bleach 50.5 ppm, pH 7.5, 30 min)?
A: The Log10 reduction was “Total inhibition”.

Q: What does the source list for chlorine dioxide [CD]?
A: bacteria recovered from showerheads after treatment (Biofilm): > 3000 cfu/ml; time needed to achieve significant reduction in Legionella positivity (Legionella): > 12 months; Log10 reduction ([1]; CD 3.12 ppm, pH 6.5, 30 min): 0.82 CFU/mm^2; Log10 reduction ([1]; CD 3.12 ppm, pH 7.5, 30 min): 1.63 CFU/mm^2; Log10 reduction ([1]; CD 6.25 ppm, pH 6.5, 30 min): 2.56 CFU/mm^2; Log10 reduction ([1]; CD 6.25 ppm, pH 7.5, 30 min): 2.38 CFU/mm^2; Log10 reduction ([1]; CD 12.5 ppm, pH 6.5, 30 min): 2.34 CFU/mm^2; Log10 reduction ([1]; CD 12.5 ppm, pH 7.5, 30 min): 2.49 CFU/mm^2; Log10 reduction ([1]; CD 50.0 ppm, pH 6.5, 30 min): Total inhibition; Log10 reduction ([1]; CD 50.0 ppm, pH 7.5, 30 min): total inhibition; solubility in water relative to chlorine [2]: approximately 10 times
